Literature values, collected in PubChem BioAssay AID1259409 (Chemical Carcinogenesis Research Information System (CCRIS), 2018).

Tested on: rodent chemically induced tumor inhibition, incidence and multiplicity
Assay: CCRIS tumor inhibitor studies
Settings: for tumour outcome (control, treated, inhibition, significance): Dose [Inhibitor]: 0

C=CCSCC=C
tumour outcome (control, treated, inhibition, significance) (Carcinogen: DIETHYLNITROSAMINE, 55-18-5, N-METHYL-N-NITROSOUREA, 684-93-5, N,N-DIBUTYLNITROSAMINE, 924-16-3, Carcinogen: DIETHYLNITROSAMINE, 55-18-5, N-METHYL-N-NITROSOUREA, 684-93-5, N,N-DIBUTYLNITROSAMINE, 924-16-3, 0.5% IN DIET BEGINNING POST CARCINOGEN TREATMENT AND CONTINUING TO WK 40 (STUDY DURATION: 40 WK), Route [Inhibitor]: ORAL, Species: RAT, Strain/Sex: F344/MALE, Target Tissue: Type of Lesion: LUNG: CARCINOMA, Dose [Carcinogen]: 100 MG/KG DIETHYLNITROSAMINE ONCE FOLLOWED BY 20 MG/KG N-METHYL-N-NITROSOUREA ON D 2, 5, 8 AND 11 THEN 0.05% N-N-DIBUTYL, Promoter: NONE USED): 3/16 (19%), 0/18 (0%), 100%, not calculated | tumour outcome (control, treated, inhibition, significance) (Carcinogen: DIETHYLNITROSAMINE, 55-18-5, N-METHYL-N-NITROSOUREA, 684-93-5, N,N-DIBUTYLNITROSAMINE, 924-16-3, Carcinogen: DIETHYLNITROSAMINE, 55-18-5, N-METHYL-N-NITROSOUREA, 684-93-5, N,N-DIBUTYLNITROSAMINE, 924-16-3, 0.5% IN DIET BEGINNING POST CARCINOGEN TREATMENT AND CONTINUING TO WK 40 (STUDY DURATION: 40 WK), Route [Inhibitor]: ORAL, Species: RAT, Strain/Sex: F344/MALE, Target Tissue: Type of Lesion: THYROID: ADENOMA, Dose [Carcinogen]: 100 MG/KG DIETHYLNITROSAMINE ONCE FOLLOWED BY 20 MG/KG N-METHYL-N-NITROSOUREA ON D 2, 5, 8 AND 11 THEN 0.05% N-N-DIBUTYL, Promoter: NONE USED): 8/16 (50%), 2/18 (11%), 78%, p<0.02 | tumour outcome (control, treated, inhibition, significance) (Carcinogen: DIETHYLNITROSAMINE, 55-18-5, N-METHYL-N-NITROSOUREA, 684-93-5, N,N-DIBUTYLNITROSAMINE, 924-16-3, Carcinogen: DIETHYLNITROSAMINE, 55-18-5, N-METHYL-N-NITROSOUREA, 684-93-5, N,N-DIBUTYLNITROSAMINE, 924-16-3, 0.5% IN DIET BEGINNING POST CARCINOGEN TREATMENT AND CONTINUING TO WK 40 (STUDY DURATION: 40 WK), Route [Inhibitor]: ORAL, Species: RAT, Strain/Sex: F344/MALE, Target Tissue: Type of Lesion: THYROID: CARCINOMA, Dose [Carcinogen]: 100 MG/KG DIETHYLNITROSAMINE ONCE FOLLOWED BY 20 MG/KG N-METHYL-N-NITROSOUREA ON D 2, 5, 8 AND 11 THEN 0.05% N-N-DIBUTYL, Promoter: NONE USED): 2/16 (13%), 0/18 (0%), 100%, not calculated | tumour outcome (control, treated, inhibition, significance) (Carcinogen: DIETHYLNITROSAMINE, 55-18-5, N-METHYL-N-NITROSOUREA, 684-93-5, N,N-DIBUTYLNITROSAMINE, 924-16-3, Carcinogen: DIETHYLNITROSAMINE, 55-18-5, N-METHYL-N-NITROSOUREA, 684-93-5, N,N-DIBUTYLNITROSAMINE, 924-16-3, 0.5% IN DIET BEGINNING POST CARCINOGEN TREATMENT AND CONTINUING TO WK 40 (STUDY DURATION: 40 WK), Route [Inhibitor]: ORAL, Species: RAT, Strain/Sex: F344/MALE, Target Tissue: Type of Lesion: URINARY BLADDER: CARCINOMA, Dose [Carcinogen]: 100 MG/KG DIETHYLNITROSAMINE ONCE FOLLOWED BY 20 MG/KG N-METHYL-N-NITROSOUREA ON D 2, 5, 8 AND 11 THEN 0.05% N-N-DIBUTYL, Promoter: NONE USED): 1/16 (6%), 0/18 (0%), 100%, not calculated | tumour outcome (control, treated, inhibition, significance) (Carcinogen: DIETHYLNITROSAMINE, 55-18-5, N-METHYL-N-NITROSOUREA, 684-93-5 N,N-DIBUTYLNITROSAMINE, 924-16-3, Carcinogen: DIETHYLNITROSAMINE, 55-18-5, N-METHYL-N-NITROSOUREA, 684-93-5 N,N-DIBUTYLNITROSAMINE, 924-16-3, 0.5% IN DIET BEGINNING POST CARCINOGEN TREATMENT AND CONTINUING TO WK 40 (STUDY DURATION: 40 WK), Route [Inhibitor]: ORAL, Species: RAT, Strain/Sex: F344/MALE, Target Tissue: Type of Lesion: URINARY BLADDER: PAPILLOMA, Dose [Carcinogen]: 100 MG/KG DIETHYLNITROSAMINE ONCE FOLLOWED BY 20 MG/KG N-METHYL-N-NITROSOUREA ON D 2, 5, 8 AND 11 THEN 0.05% N-N-DIBUTYL, Promoter: NONE USED): 4/16 (25%), 2/18 (11%), 56%, not calculated | tumour outcome (control, treated, inhibition, significance) (Carcinogen: DIETHYLNITROSAMINE, 55-18-5, N-METHYL-NITROSOUREA, 684-93-5, N,N'-DIMETHYLHYDRAZINE, 540-73-8, N-BUTYL-N-(4-HYDROX, Carcinogen: DIETHYLNITROSAMINE, 55-18-5, N-METHYL-NITROSOUREA, 684-93-5, N,N'-DIMETHYLHYDRAZINE, 540-73-8, N-BUTYL-N-(4-HYDROX, 200 MG/KG BW IN CORN OIL 3/WK FOR 6 WK BEGINNING POST CARCINOGEN TREATMENT (STUDY DURATION: 28 WK), Route [Inhibitor]: GAVAGE, Species: RAT, Strain/Sex: F344/MALE, Target Tissue: Type of Lesion: KIDNEY: NEPHROBLASTOMA, Dose [Carcinogen]: 100 MG/KG BW DEN ONCE, 20 MG/KG BW MNU ONCE ON D 2, 5, 8 AND 11, 40 MG/KG BW DMH ON D 14, 17, 20 AND 23, 0.05% BHBN I, Dose [Carcinogen]: 100 MG/KG BW DEN ONCE, 20 MG/KG BW MNU ONCE ON D 2, 5, 8 AND 11, 40 MG/KG BW DMH ON D 14, 17, 20 AND 23, 0.05% BHBN I, Promoter: NONE USED): 5/20 (25%), 8/19 (42%), -68%, not calculated | tumour outcome (control, treated, inhibition, significance) (Carcinogen: DIETHYLNITROSAMINE, 55-18-5, N-METHYL-NITROSOUREA, 684-93-5, N,N'-DIMETHYLHYDRAZINE, 540-73-8, N-BUTYL-N-(4-HYDROX, Carcinogen: DIETHYLNITROSAMINE, 55-18-5, N-METHYL-NITROSOUREA, 684-93-5, N,N'-DIMETHYLHYDRAZINE, 540-73-8, N-BUTYL-N-(4-HYDROX, 200 MG/KG BW IN CORN OIL 3/WK FOR 6 WK BEGINNING POST CARCINOGEN TREATMENT (STUDY DURATION: 28 WK), Route [Inhibitor]: GAVAGE, Species: RAT, Strain/Sex: F344/MALE, Target Tissue: Type of Lesion: KIDNEY: RENAL CELL CARCINOMA, Dose [Carcinogen]: 100 MG/KG BW DEN ONCE, 20 MG/KG BW MNU ONCE ON D 2, 5, 8 AND 11, 40 MG/KG BW DMH ON D 14, 17, 20 AND 23, 0.05% BHBN I, Dose [Carcinogen]: 100 MG/KG BW DEN ONCE, 20 MG/KG BW MNU ONCE ON D 2, 5, 8 AND 11, 40 MG/KG BW DMH ON D 14, 17, 20 AND 23, 0.05% BHBN I, Promoter: NONE USED): 1/20 (5%), 0/19 (0%), 100%, not calculated | tumour outcome (control, treated, inhibition, significance) (Carcinogen: N-NITROSOMETHYLBENZYLAMINE, 937-40-6, 10 MG/KG IN CORN OIL 1/WK FOR 5 WK BEGINNING 3 HR PRIOR TO CARCINOGEN TREATMENT (STUDY DURATION: 15 WK), Route [Inhibitor]: GAVAGE, Species: RAT, Strain/Sex: SPRAGUE-DAWLEY/MALE, Target Tissue: Type of Lesion: ESOPHAGUS: TUMOR, Dose [Carcinogen]: 3 MG/KG 1/WK FOR 5 WK, Promoter: NONE USED): 96%, 90%, 6%, not significant | tumour outcome (control, treated, inhibition, significance) (Carcinogen: N-NITROSOMETHYLBENZYLAMINE, 937-40-6, 100 MG/KG IN CORN OIL 1/WK FOR 5 WK BEGINNING 3 HR PRIOR TO CARCINOGEN TREATMENT (STUDY DURATION: 15 WK), Route [Inhibitor]: GAVAGE, Species: RAT, Strain/Sex: SPRAGUE-DAWLEY/MALE, Target Tissue: Type of Lesion: ESOPHAGUS: TUMOR, Dose [Carcinogen]: 3 MG/KG 1/WK FOR 5 WK, Promoter: NONE USED): 96%, 63%, 34%, p<0.05 | tumour outcome (control, treated, inhibition, significance) (Carcinogen: N-NITROSOMETHYLBENZYLAMINE, 937-40-6, 200 MG/KG IN CORN OIL 1/WK FOR 5 WK BEGINNING POST CARCINOGEN TREATMENT (STUDY DURATION: 15 WK), Route [Inhibitor]: GAVAGE, Species: RAT, Strain/Sex: SPRAGUE-DAWLEY/MALE, Target Tissue: Type of Lesion: ESOPHAGUS: TUMOR, Dose [Carcinogen]: 3 MG/KG 1/WK FOR 5 WK, Promoter: NONE USED): 96%, 96%, 0%, not significant | outcome (Carcinogen: N-NITROSOMETHYLBENZYLAMINE, 937-40-6, Dose [Inhibitor]: 200 MG/KG BW IN CORN OIL 1/WK FOR 5 WK BEGINNING 3 HR PRIOR TO EACH CARCINOGEN DOSE (STUDY DURATION: 15 WK), Route [Inhibitor]: GAVAGE, Species: RAT, Strain/Sex: SPRAGUE-DAWLEY/MALE, Target Tissue: Type of Lesion: ESOPHAGUS: TUMOR, Dose [Carcinogen]: 3.5 MG/KG BW 1/WK FOR 5 WK, Promoter: NONE USED): 79%, 0, 100%, p<0.001 | tumour outcome (control, treated, inhibition, significance) (Carcinogen: VINYL CARBAMATE, 15805-73-9, 8 UMOL IN 0.1 MOLAR STERILIZED POTASSIUM BUFFER ONCE 10 MIN PRIOR TO CARCINOGEN DOSE (STUDY DURATION: 22 WK), Route [Inhibitor]: GAVAGE, Species: MOUSE, Strain/Sex: ICR/FEMALE, Target Tissue: Type of Lesion: SKIN: PAPILLOMA, Dose [Carcinogen]: 5.8 UMOL IN 0.2 ML ACETONE ONCE, Promoter: 12-O-TETRADECANOYLPHORBOL 13-ACETATE, 16561-29-8): 70%, 57%, 19%, not significant | tumour outcome (control, treated, inhibition, significance) (Carcinogen: VINYL CARBAMATE, 15805-73-9, 200 MG/KG BW ONCE AT 2 HR AND 1 D PRIOR TO CARCINOGEN DOSE (STUDY DURATION: 22 WK), Route [Inhibitor]: GAVAGE, Species: MOUSE, Strain/Sex: CD-1/FEMALE, Target Tissue: Type of Lesion: SKIN: PAPILLOMA, Dose [Carcinogen]: 11.5 UMOL IN 0.2 ML ACETONE ONCE, Promoter: 12-O-TETRADECANOYLPHORBOL-13-ACETATE, 16561-29-8): 58%, 29%, 50%, not calculated
